Measured values taken from publication PMC7026418, “The kinase polypharmacology landscape of clinical PARP inhibitors” (Scientific Reports, 2020).
Where two headings read alike, the source gives them in different places.

What was measured:
Test in all cases: biochemical
Design in all cases: DiscoveRx KINOMEscan active site-directed competition binding; percent of control kinase bound to immobilised ligand
AURKA = target: T1, AURKA (Homo sapiens, UniProt O14965)
T1 sequence (O14965 1-403): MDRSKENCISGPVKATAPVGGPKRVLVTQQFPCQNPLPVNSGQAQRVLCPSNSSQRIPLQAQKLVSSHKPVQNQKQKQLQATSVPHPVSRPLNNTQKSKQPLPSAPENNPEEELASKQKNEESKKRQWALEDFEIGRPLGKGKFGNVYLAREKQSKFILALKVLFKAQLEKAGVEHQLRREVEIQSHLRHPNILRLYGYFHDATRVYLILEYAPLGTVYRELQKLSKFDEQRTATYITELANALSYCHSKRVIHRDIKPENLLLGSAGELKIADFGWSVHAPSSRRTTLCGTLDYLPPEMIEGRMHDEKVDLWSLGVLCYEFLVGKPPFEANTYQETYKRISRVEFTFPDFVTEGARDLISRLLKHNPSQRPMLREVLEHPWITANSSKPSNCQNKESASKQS

MET(M1250T) = MET(M1250T) (Homo sapiens, UniProt P08581, M1250T)
MELK = MELK (Homo sapiens, UniProt Q14680)
CAMK1D = CAMK1D (Homo sapiens, UniProt Q8IU85)
RIPK1 = target: T2, RIPK1 (Homo sapiens, UniProt Q13546)
T2 sequence (Q13546 1-671): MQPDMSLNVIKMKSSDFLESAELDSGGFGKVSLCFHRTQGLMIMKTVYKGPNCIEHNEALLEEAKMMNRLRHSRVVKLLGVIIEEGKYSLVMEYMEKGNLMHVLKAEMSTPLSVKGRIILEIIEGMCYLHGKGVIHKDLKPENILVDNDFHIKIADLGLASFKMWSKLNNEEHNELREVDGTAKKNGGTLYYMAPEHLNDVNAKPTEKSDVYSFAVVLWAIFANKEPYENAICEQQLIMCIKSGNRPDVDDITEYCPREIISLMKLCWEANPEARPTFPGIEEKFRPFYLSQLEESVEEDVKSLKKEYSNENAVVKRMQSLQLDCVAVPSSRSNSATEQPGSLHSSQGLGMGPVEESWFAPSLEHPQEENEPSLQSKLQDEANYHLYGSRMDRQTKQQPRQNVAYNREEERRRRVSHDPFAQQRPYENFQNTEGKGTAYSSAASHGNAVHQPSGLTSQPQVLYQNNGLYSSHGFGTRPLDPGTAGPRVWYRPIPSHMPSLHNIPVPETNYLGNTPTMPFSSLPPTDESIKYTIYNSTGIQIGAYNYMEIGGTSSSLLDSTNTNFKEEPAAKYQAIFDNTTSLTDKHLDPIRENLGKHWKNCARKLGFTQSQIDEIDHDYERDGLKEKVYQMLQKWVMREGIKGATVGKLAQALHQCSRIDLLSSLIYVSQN

AXL = target: T3, AXL (Homo sapiens, UniProt P30530)
T3 sequence (P30530 1-894): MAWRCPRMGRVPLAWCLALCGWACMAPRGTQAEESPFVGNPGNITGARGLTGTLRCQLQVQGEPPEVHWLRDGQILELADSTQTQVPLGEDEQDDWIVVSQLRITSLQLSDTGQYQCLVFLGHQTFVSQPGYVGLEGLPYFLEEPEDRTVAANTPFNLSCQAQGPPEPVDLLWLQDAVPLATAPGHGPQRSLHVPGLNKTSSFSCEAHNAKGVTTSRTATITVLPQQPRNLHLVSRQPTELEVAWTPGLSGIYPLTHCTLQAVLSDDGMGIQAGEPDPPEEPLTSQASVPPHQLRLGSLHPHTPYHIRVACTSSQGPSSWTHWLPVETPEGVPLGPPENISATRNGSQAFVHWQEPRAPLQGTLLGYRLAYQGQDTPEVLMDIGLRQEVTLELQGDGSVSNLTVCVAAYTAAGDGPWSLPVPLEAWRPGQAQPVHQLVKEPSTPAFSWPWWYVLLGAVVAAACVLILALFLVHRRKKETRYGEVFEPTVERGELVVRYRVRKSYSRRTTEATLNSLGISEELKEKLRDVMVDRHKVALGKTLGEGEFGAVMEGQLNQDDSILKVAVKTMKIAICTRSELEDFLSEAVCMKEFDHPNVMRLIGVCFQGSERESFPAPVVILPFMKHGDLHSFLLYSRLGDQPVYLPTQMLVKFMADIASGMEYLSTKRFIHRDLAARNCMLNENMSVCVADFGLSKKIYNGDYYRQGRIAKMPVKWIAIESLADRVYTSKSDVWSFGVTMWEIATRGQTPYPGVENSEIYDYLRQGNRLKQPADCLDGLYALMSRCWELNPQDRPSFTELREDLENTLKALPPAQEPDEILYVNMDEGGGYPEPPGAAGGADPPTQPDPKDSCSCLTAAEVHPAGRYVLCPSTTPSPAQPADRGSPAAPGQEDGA

[1] = read-out: Talazoparib (BMN 673) / %Ctrl @ 10000nM
[2] = read-out: Olaparib / %Ctrl @ 10000nM
[3] = read-out: Niraparib (MK-4827) / %Ctrl @ 10000nM
[4] = read-out: Rucaparib / %Ctrl @ 10000nM, binding competition, % of control

Chain of MET(M1250T) (P08581 whole entry M1250T): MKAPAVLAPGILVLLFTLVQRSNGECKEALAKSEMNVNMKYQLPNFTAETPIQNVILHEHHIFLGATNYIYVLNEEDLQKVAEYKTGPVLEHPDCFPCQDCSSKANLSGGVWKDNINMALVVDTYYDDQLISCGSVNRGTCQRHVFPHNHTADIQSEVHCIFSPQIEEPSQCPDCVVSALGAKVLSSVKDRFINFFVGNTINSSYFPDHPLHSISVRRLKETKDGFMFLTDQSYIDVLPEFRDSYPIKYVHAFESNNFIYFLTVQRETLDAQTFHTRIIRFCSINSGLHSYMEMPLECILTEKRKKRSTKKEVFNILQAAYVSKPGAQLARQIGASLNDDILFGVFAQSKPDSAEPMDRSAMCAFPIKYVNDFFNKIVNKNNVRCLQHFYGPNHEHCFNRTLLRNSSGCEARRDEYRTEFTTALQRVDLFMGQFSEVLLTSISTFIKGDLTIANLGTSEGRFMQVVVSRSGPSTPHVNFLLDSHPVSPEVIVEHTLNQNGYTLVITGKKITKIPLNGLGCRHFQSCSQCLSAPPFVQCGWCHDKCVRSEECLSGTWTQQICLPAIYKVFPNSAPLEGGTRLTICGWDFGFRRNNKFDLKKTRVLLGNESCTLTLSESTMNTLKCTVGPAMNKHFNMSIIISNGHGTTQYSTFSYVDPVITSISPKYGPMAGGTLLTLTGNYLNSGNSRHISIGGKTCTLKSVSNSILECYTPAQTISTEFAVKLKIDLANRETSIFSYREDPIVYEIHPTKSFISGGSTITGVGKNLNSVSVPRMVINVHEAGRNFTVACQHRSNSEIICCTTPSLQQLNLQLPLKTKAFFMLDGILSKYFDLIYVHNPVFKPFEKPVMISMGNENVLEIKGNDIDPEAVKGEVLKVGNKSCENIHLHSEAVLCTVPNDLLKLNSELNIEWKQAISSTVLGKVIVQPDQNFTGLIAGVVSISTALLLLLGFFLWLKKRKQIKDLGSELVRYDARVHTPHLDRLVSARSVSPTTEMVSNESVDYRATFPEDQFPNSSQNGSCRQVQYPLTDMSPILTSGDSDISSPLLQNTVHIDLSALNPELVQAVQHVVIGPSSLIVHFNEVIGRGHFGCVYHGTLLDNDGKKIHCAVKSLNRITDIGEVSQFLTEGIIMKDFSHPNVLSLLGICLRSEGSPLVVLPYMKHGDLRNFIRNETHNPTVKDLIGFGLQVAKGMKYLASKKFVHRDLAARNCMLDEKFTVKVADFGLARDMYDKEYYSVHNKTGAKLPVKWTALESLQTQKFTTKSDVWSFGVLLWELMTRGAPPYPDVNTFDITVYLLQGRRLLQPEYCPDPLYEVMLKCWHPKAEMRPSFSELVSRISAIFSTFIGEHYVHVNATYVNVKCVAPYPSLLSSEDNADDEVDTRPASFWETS
Chain of MELK (Q14680 whole entry): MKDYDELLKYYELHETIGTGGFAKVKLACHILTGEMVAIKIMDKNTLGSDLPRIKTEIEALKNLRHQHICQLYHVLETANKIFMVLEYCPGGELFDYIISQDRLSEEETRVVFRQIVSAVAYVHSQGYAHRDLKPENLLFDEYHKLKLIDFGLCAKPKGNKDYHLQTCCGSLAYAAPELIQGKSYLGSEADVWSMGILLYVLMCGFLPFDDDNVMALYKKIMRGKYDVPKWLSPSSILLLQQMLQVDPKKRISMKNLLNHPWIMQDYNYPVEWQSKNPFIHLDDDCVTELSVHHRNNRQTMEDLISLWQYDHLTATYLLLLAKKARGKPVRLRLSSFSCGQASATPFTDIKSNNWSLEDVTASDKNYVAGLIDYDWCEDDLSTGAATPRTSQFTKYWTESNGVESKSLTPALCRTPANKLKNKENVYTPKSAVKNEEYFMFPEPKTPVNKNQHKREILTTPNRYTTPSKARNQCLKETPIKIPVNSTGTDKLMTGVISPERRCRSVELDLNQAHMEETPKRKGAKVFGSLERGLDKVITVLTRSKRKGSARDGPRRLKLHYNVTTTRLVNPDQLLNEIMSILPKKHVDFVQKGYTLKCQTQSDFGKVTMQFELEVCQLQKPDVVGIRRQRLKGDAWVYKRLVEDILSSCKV
Chain of CAMK1D (Q8IU85 whole entry): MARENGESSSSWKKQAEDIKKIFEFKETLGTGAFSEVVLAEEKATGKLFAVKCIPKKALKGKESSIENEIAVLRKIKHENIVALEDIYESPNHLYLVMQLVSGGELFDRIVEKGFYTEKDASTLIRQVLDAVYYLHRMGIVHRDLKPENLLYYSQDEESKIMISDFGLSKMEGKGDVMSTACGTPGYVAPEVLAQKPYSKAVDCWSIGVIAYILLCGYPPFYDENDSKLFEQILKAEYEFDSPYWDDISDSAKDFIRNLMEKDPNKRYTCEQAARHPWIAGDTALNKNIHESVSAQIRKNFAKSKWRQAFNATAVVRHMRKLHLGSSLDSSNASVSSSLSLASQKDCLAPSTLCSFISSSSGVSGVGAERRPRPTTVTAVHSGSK

Cn1ncnc1[C@H]1c2n[nH]c(=O)c3cc(F)cc(c23)N[C@@H]1c1ccc(F)cc1 [Talazoparib] showed a percent of control binding at 10 µM (AURKA; [1]) of 84%, a percent of control binding at 10 µM (MET(M1250T); [1]) of 99% and a percent of control binding at 10 µM (MELK; [1]) of 94%. For the same molecule, the percent of control binding at 10 µM (CAMK1D; [1]) was 91%, the percent of control binding at 10 µM (RIPK1; [1]) was 99% and the percent of control binding at 10 µM (AXL; [1]) was 100%.

Molecule O=C(c1cc(Cc2n[nH]c(=O)c3ccccc23)ccc1F)N1CCN(C(=O)C2CC2)CC1 [Olaparib] has a percent of control binding at 10 µM (AURKA; [2]) of 91%, a percent of control binding at 10 µM (MET(M1250T); [2]) of 99% and a percent of control binding at 10 µM (MELK; [2]) of 90%. It also gave a percent of control binding at 10 µM (CAMK1D; [2]) of 94%, a percent of control binding at 10 µM (RIPK1; [2]) of 100% and a percent of control binding at 10 µM (AXL; [2]) of 100%.

Work on NC(=O)c1cccc2cn(-c3ccc([C@@H]4CCCNC4)cc3)nc12 [Niraparib] yielded a percent of control binding at 10 µM (AURKA; [3]) of 25%, a percent of control binding at 10 µM (MET(M1250T); [3]) of 91% and a percent of control binding at 10 µM (MELK; [3]) of 70%. It also gave a percent of control binding at 10 µM (CAMK1D; [3]) of 84%, a percent of control binding at 10 µM (RIPK1; [3]) of 91% and a percent of control binding at 10 µM (AXL; [3]) of 59%.

For CNCc1ccc(-c2[nH]c3cc(F)cc4c3c2CCNC4=O)cc1 [Rucaparib], the percent of control binding at 10 µM (AURKA; [4]) was 75%, the percent of control binding at 10 µM (MET(M1250T); [4]) was 99% and the percent of control binding at 10 µM (MELK; [4]) was 76%. For the same molecule, the percent of control binding at 10 µM (CAMK1D; [4]) was 86%, the percent of control binding at 10 µM (RIPK1; [4]) was 99% and the percent of control binding at 10 µM (AXL; [4]) was 82%.
